Where “and” joins values, the source holds several entries; their conditions need not be identical. Identical values can stand only once.
Legend:
[1] = Voltage sensitivity on voltage-clamped hemispherical lipid bilayer; conditions: long pass emission filter
From the text: It is known that optimal voltage sensitivity can be obtained by measuring the compounds on a voltage-clamped hemispherical bilayer apparatus. The apparatus can include a patch-clamp amplifier, such as a HEKA EPC-8 patch-clamp amplifier. Measurements can be obtained by stepping the membrane potential between two different potentials for a set time lapse. such as, for example, −110 and −60 mV every 10 ms.
Testing VSDs in a voltage-clamped hemispherical lipid bilayer allows one to determine the sensitivity of the VSDs as a function of excitation wavelength. This system has a Teflon tube filled with KCl and is immersed in a KCl solution in a cuvette. A lipid bubble is blown at the tip of the tube and spontaneously forms a bilayer membrane. The VSD to be tested is introduced on one side of the bilayer, usually in the cuvette. Electrodes in the tube and in the cuvette allow the imposition of a voltage across the membrane and a tungsten lamp coupled to a monochromator allows excitation wavelength dependence of the fluorescence response to voltage steps to be determined. This screening approach has allows for the comparison of the efficacy of newly developed VSDs in a well-controlled, consistent manner and to also determine excitation and emission wavelengths with optimal.
Voltage sensitivities of 2a as a function of voltage is shown in FIG. 3A for excitation at 730 nm and 570 nm. The voltage response is linear over the range of −100 mV to +100 mV; 570 nm is slightly to the blue of the isosbestic point, accounting for the weak but inverted sensitivity at this wavelength. […] This opposite polarity at the blue and red edges underlies the ability to use electrochromic hemicyanine dyes for dual-wavelength ratio imaging. The precise location of the isosbestic point in the excitation wavelength depends on the emission filter used because the emission spectrum is also voltage dependent for hemicyanine dyes.
The magnitude and wavelengths of the optimal voltage sensitivities of all the VSDs on the voltage-clamped hemispherical bilayer are included in the third column of Table 1.

intact mouse hearts = assay: Optical mapping of cardiac electrical activity in isolated mouse hearts
Procedure: All animal handling and procedures were performed in accordance with the guidelines from Directive 2010/63/EU of the European Parliament on the protection of animals used for scientific purposes. The experimental protocol was approved by the Italian Ministry of Health (protocol number 944/2018-PR). Transgenic mice (ChR2-mhc6-cre+) with cardiomyocyte-specific expression of Channelrhodopsin-2 (ChR2, H134R variant) were generated and employed in this study. Wild-type mice (C57BL/6J) and ChR2-mhc6-cre+ mice (6 months old) were heparinized (0.1 mL at 5000 units/mL) and anesthetized by inhaled isoflurane (5%). The excised heart was immediately bathed in Krebs-Henseleit (KH) solution and cannulated through the aorta. The KH buffer contained (in mM): 120 NaCl, 5 KCl, 2 MgS2 O4-7H2O, 20 NaHCO3, 1.2 NaH2PO4—H2O, 1.8 CaCl2 and 10 glucose, pH 7.4 when equilibrated with carbogen. Cardiac contraction was inhibited during the entire experiment with 1 μM blebbistatin (Enzo Life Sciences, Farmingdale, NY, USA) in the solution. The cannulated heart was perfused through the aorta (using a horizontal-Langendorff perfusion system) with the KH solution and then transferred to a custom-built optical mapping chamber at a constant flow of 2.5 mL/min at (36±0.5)° C. Two platinum electrodes were placed below the heart for monitoring cardiac electrical activity via electrocardiogram (ECG). 1 mL of perfusion solution containing the voltage sensitive dye (VSD; ElectroFluor730p: 10 μM; di-4-ANBDQPQ: 6 μg/mL) was bolus injected into the aorta. All the experiments were performed at (36±0.5° C.) within 1 hour after dye loading to avoid potential re-distribution of the dye and accumulation of phototoxic by-products.
Optical mapping was performed using a custom-made mesoscope. Stained mouse hearts were illuminated in a wide-field configuration using a 2× objective (TL2x-SAP, Thorlabs, Newton, NJ, USA) and employing four different LED operating at a wavelength centred at 730 nm, 625 nm, 590 nm and 530 nm (M730L5, M625L3, M590L4 and M530L4 Thorlabs, Newton, NJ, USA) followed by excitation band-pass filters at 730/39 nm, 640/40 nm, 589/15 nm (FF01-730/39-25, FF01-640/40-25, FF01-589/15-25, Semrock) and 530/43 nm (MF530-43, Thorlabs) respectively. di-4-ANBDQPQ stained hearts were excited at 625 nm (0.875 mW/mm^2) and a dichroic beam splitter (FF685-Di02-25×36, Semrock) followed by a band-pass filter at 775/140 nm (FF01-775/140-25, Semrock) was used for collecting the emitted fluorescent signal. […] Light intensities were measured at sample site using a photodiode sensor (PD300-3W, Ophir Optronics, Jerusalem, Israel). […]

pharmacological effects of the VSD (intact mouse hearts; isolated mouse hearts): no measurable pharmacological effects
Structure (SMILES): CCCCCCN(CCCCCC)c1ccc2c(c1)OCC(/C=C/c1c(F)c[n+](CCC[N+](CC)(CC)CC)c3ccccc13)=C2.[Br-].[Br-] [2c]
Ex (excitation wavelength of optimal voltage sensitivity) [1]: 730 nm
Voltage Sensitivity ΔF/F per 100 mV ([1]; magnitude at optimal Ex/Em): 12%
sensitivity to an AP (APA), % decrease in fluorescence at the peak of an AP (intact mouse hearts; 730 nm excitation, compared with di-4-ANBDQPQ): higher than that of di-4-ANBDQPQ
differences in AP kinetics (APRS, APD50, APD70, APD90) (intact mouse hearts; compared with di-4-ANBDQPQ, student's t-test, listed as ElectroFluor730p): no statistically significant differences in AP parameters excepting AP Amplitude
inversion point (isosbestic point) of sensitivity (intact mouse hearts; excitation 730, 590, 530 nm, exponential fit, listed as ElectroFluor730p): ≈ 571 nm and ~571 nm

Source: US20260048151A1, “HEMICYANINE PUSH-PULL DYES BASED ON CHROMENE ELECTRON DONORS” (UNIVERSITY OF CONNECTICUT, priority 2022, published 2026)
